Assay results as given in patent publication US20200085776A1, “Methods of Reducing C-Reactive Protein and/or Treating Cardiovascular Disease” (CARDAX, INC., priority 2018, published 2020).

Test system: C-reactive protein (CRP)
Experiment: CRP (hs-CRP) in blood, CHASE clinical study
Assay type: in vivo, human
Details: Group X 12 mg BID; for CRP Max / CRP Mean (SD) / CRP Median / CRP Min: V6 Week 12
From the text: This is a two-part study comprising Part I and Part II. Following screening, Part I consists of a randomized, double-blind, placebo controlled dosing period of up to 12 weeks. The study shall be conducted at one or more study sites in Hawaii. Approximately 360 subjects qualified after completion of screening procedures shall be randomized in a 1:1:1 ratio to one of three treatment groups, per Table 1.
The Part I 12-week double-blind dosing period commences with V2, including randomization and first dose of study product, and continues with study visits at Week 1-2 (V3), Week 4 (V4), Week 8 (V5), and Week 12 (V6). V6 procedures will conclude Part I.
Blood shall be obtained at each visit for CRP. The screening specimen shall be processed at the local lab and reported to the study staff for eligibility determination; CRP samples at V7 and V8 may also be processed locally and reported directly to study staff. Samples for CRP from V2 through V6 may be batched, processed, and reported as specified in the Laboratory Manual.
At each these visits, blood was obtained for measurement of CRP, among other parameters. Table 7A provides a summary of the CRP measurements (mg/L) at each visit and Table 7B provides a summary of the differences of CRP levels between V2 and V6.

[1] = subjects with DM2, hypertension and hyperlipidemia but not CAD
[2] = subjects with Diabetes Mellitus Type II
[3] = subjects with baseline level greater than 2.0
[4] = baseline to Week 12, all subjects
[5] = baseline to Week 12, subjects not taking a hypertension agent
[6] = baseline to Week 12, subjects not taking any cardiac therapeutic agent
[7] = baseline to Week 12, subjects not taking statins
[8] = baseline to Week 12, subjects taking an anti-diabetic agent
[9] = baseline to Week 12, subjects with CAD
[10] = baseline to Week 12, subjects with DM2, hypertension and hyperlipidemia but not CAD
[11] = baseline to Week 12, subjects with Diabetes Mellitus Type II
[12] = baseline to Week 12, subjects with baseline level greater than 2.0
[13] = baseline to Week 12, subjects with hyperlipidemia

CC1=C(/C=C/C(C)=C/C=C/C(C)=C/C=C/C=C(C)/C=C/C=C(C)/C=C/C2=C(C)C(=O)C(O)CC2(C)C)C(C)(C)CC(O)C1=O (stereo not drawn) [Astaxanthin, astaxanthin]
CRP Max [1]: 6.80 mg/L | CRP Mean (SD) [1]: 2.95 (2.32) mg/L | CRP Median [1]: 1.91 mg/L | CRP Min [1]: 1.02 mg/L | CRP Max [2]: 6.80 mg/L | CRP Mean (SD) [2]: 2.91 (2.07) mg/L | CRP Median [2]: 2.32 mg/L | CRP Min [2]: 1.02 mg/L | CRP Max [3]: 11.04 mg/L | CRP Mean (SD) [3]: 3.69 (3.14) mg/L | CRP Median [3]: 2.71 mg/L | CRP Min [3]: 0.22 mg/L | CRP Max (subjects with hyperlipidemia): 11.04 mg/L | CRP Mean (SD) (subjects with hyperlipidemia): 3.90 (3.38) mg/L | CRP Median (subjects with hyperlipidemia): 2.71 mg/L | CRP Min (subjects with hyperlipidemia): 1.02 mg/L | CRP V2 to V6 % Change Max [4]: 122.6% | CRP V2 to V6 % Change Mean [4]: −21.3% | CRP V2 to V6 % Change Median [4]: −31.8% | CRP V2 to V6 % Change Min [4]: −89.8% | CRP V2 to V6 Change Max [4]: 6.08 mg/L | CRP V2 to V6 Change Mean [4]: -2.07 mg/L | CRP V2 to V6 Change Median [4]: -1.57 mg/L | CRP V2 to V6 Change Min [4]: -11.1 mg/L | CRP V2 to V6 % Change Max [5]: −25.8, −25.8% | CRP V2 to V6 % Change Mean (SD) [5]: −25.8% | CRP V2 to V6 % Change Median [5]: −25.8% | CRP V2 to V6 % Change Min [5]: −25.8, −25.8% | CRP V2 to V6 Change Max [5]: −0.94, −0.94 mg/L | CRP V2 to V6 Change Mean (SD) [5]: -0.94 mg/L | CRP V2 to V6 Change Median [5]: -0.94 mg/L | CRP V2 to V6 Change Min [5]: −0.94, −0.94 mg/L | CRP V2 to V6 % Change Max [6]: −25.8% | CRP V2 to V6 % Change Mean (SD) [6]: −56.6 (29.46) % | CRP V2 to V6 % Change Median [6]: −61.9% | CRP V2 to V6 % Change Min [6]: −89.8% | CRP V2 to V6 Change Max [6]: -0.37 mg/L | CRP V2 to V6 Change Mean (SD) [6]: −4.28 (4.63) mg/L | CRP V2 to V6 Change Median [6]: -1.94 mg/L | CRP V2 to V6 Change Min [6]: -11.1 mg/L | CRP V2 to V6 % Change Max [7]: 122.6% | CRP V2 to V6 % Change Mean (SD) [7]: 2.34 (88.58) % | CRP V2 to V6 % Change Median [7]: −25.6% | CRP V2 to V6 % Change Min [7]: −89.8% | CRP V2 to V6 Change Max [7]: 6.08 mg/L | CRP V2 to V6 Change Mean (SD) [7]: −0.18 (4.04) mg/L | CRP V2 to V6 Change Median [7]: -0.80 mg/L | CRP V2 to V6 Change Min [7]: -5.89 mg/L | CRP V2 to V6 % Change** Max [8]: −26.6% | CRP V2 to V6 % Change** Mean (SD) [8]: −52.9 (20.70) % | CRP V2 to V6 % Change** Median [8]: −55.7% | CRP V2 to V6 % Change** Min [8]: −78.8% | CRP V2 to V6 Change Max [8]: -0.37 mg/L | CRP V2 to V6 Change Mean (SD) [8]: −4.61 (4.14) mg/L | CRP V2 to V6 Change Median [8]: -3.76 mg/L | CRP V2 to V6 Change Min [8]: -11.1 mg/L | CRP V2 to V6 % Change Max [9]: −68.4% | CRP V2 to V6 % Change Mean (SD) [9]: −68.4% | CRP V2 to V6 % Change Median [9]: −68.4% | CRP V2 to V6 % Change Min [9]: −68.48% | CRP V2 to V6 Change Max [9]: −5.89, −5.89 mg/L | CRP V2 to V6 Change Mean (SD) [9]: -5.89 mg/L | CRP V2 to V6 Change Median [9]: -5.89 mg/L | CRP V2 to V6 Change Min [9]: −5.89, −5.89 mg/L | CRP V2 to V6 % Change Max [10]: −26.6% | CRP V2 to V6 % Change Mean (SD) [10]: −49.7 (21.51) % | CRP V2 to V6 % Change Median [10]: −49.5% | CRP V2 to V6 % Change Min [10]: −78.8% | CRP V2 to V6 Change Max [10]: -0.37 mg/L | CRP V2 to V6 Change Mean (SD) [10]: −4.35 (4.57) mg/L | CRP V2 to V6 Change Median [10]: -1.63 mg/L | CRP V2 to V6 Change Min [10]: -11.1 mg/L | CRP V2 to V6 % Change Max [11]: −26.6% | CRP V2 to V6 % Change Mean (SD) [11]: −52.9 (20.70) % | CRP V2 to V6 % Change Median [11]: −55.7% | CRP V2 to V6 % Change Min [11]: −78.8% | CRP V2 to V6 Change Max [11]: -0.37 mg/L | CRP V2 to V6 Change Mean (SD) [11]: −4.61 (4.14) mg/L | CRP V2 to V6 Change Median [11]: -3.76 mg/L | CRP V2 to V6 Change Min [11]: -11.1 mg/L | CRP V2 to V6 % Change Max [12]: 122.6% | CRP V2 to V6 % Change Mean (SD) [12]: −20.8 (73.37) % | CRP V2 to V6 % Change Median [12]: −40.7% | CRP V2 to V6 % Change Min [12]: −89.8% | CRP V2 to V6 Change Max [12]: 6.08 mg/L | CRP V2 to V6 Change Mean (SD) [12]: −2.24 (4.83) mg/L | CRP V2 to V6 Change Median [12]: -1.60 mg/L | CRP V2 to V6 Change Min [12]: -11.1 mg/L | CRP V2 to V6 % Change Max [13]: 122.6% | CRP V2 to V6 % Change Mean (SD) [13]: −27.5 (63.84) % | CRP V2 to V6 % Change Median [13]: −40.7% | CRP V2 to V6 % Change Min [13]: −78.8% | CRP V2 to V6 Change Max [13]: 6.08 mg/L | CRP V2 to V6 Change Mean (SD) [13]: −2.81 (5.17) mg/L | CRP V2 to V6 Change Median [13]: -1.60 mg/L | CRP V2 to V6 Change Min [13]: -11.1 mg/L
